PubChem BioAssay AID652053 (Broad Institute, 2013)
Where “and” joins values, the source holds several entries; their conditions need not be identical. Equal entries are not always repeated.

Test system: Huh7 psiCHECK-miR122 Renilla luciferase reporter, 48 h
Assay: suppression of miR-122 activity, Renilla luciferase sensor – cell-based, Huh7 psiCHECK-miR122, cherry-pick, dose response (AID 652053)

SMILES: O=C(NC1CCCC1)C(c1ccccc1)N(Cc1ccc2c(c1)OCO2)C(=O)Cc1cccs1 (stereo unspecified)
- AC40: 6.85 µM

SMILES: S=C(Nc1ccc(Cl)cc1Cl)NC1CCCCC1
- AC40: 3.4 µM

SMILES: COc1ccc(S(=O)(=O)Nc2ccc(CC#N)cc2)cc1
- AC40: 11.9 µM

SMILES: COc1ccc(C)cc1S(=O)(=O)NCCC1=CCCCC1
- AC40: 0.465 µM

SMILES: O=C(NCCCn1ccnc1)c1cc(-c2ccccc2)on1
- AC40: 28.8 µM

SMILES: Cc1ccnc(NCc2cc(C)ccc2O)c1
- AC40: 29.8 µM

SMILES: CC(C)CC(=O)Nc1cccc(-c2nc3ccccc3[nH]2)c1
- AC40: 15.6 µM

SMILES: CCOc1ccc2cc(C3CC(c4ccco4)=NN3S(C)(=O)=O)c(=O)[nH]c2c1 (stereo unspecified)
- AC40: 7.29 µM

SMILES: O=S(=O)(Nc1ccc(S(=O)(=O)N2CCCC2)cc1)c1ccccc1Br
- AC40: 4.34 µM

SMILES: C[C@@H]1CN([C@H](C)CO)C(=O)c2cccc(NC(=O)Nc3ccc(F)cc3)c2O[C@H]1CN(C)Cc1ccc(C(F)(F)F)cc1
- AC40: 1.51 µM

SMILES: C[C@@H]1CN([C@H](C)CO)C(=O)c2cccc(NS(C)(=O)=O)c2O[C@@H]1CN(C)Cc1ccc(C(F)(F)F)cc1
- AC40: 12.5 µM

SMILES: OC(c1ccc(Cl)c(Cl)c1)c1ncc(-c2ccccc2F)[nH]1 (stereo unspecified)
- AC40: 3.49 µM

SMILES: CCN(CC(=O)NCc1cccs1)C(=O)c1cccc(S(=O)(=O)Nc2cccc(C)c2)c1
- AC40: 6.04 µM

SMILES: COc1ccc(C)cc1NS(=O)(=O)c1ccc2c(c1)CCN2C(C)=O
- AC40: 8.33 µM

SMILES: O=C(c1ccc(F)cc1)N1C[C@@H]2[C@H](c3ccccc31)[C@H](CO)N2C(=O)c1ccc(F)cc1
- AC40: 2.35 µM

SMILES: CCN(CC)c1ccc(S(=O)(=O)Nc2cc(Cl)ccc2Cl)cc1NC(=S)NC(=O)C1CCCC1
- AC40: 7.34 µM

SMILES: COCC#Cc1ccc2c(c1)O[C@H](CN(C)S(=O)(=O)c1ccc(OC)cc1)[C@H](C)CN([C@H](C)CO)S2(=O)=O
- AC40: 5.8 µM

SMILES: COc1ccc(NS(=O)(=O)c2cc(NC(=O)Cc3c(F)cccc3Cl)ccc2OC)cc1
- AC40: 3.67 µM

SMILES: C[C@H](CO)N1C[C@H](C)[C@H](CN(C)Cc2ccc(C(=O)Nc3ccccc3N)cc2)Oc2c(cccc2N(C)C)C1=O
- AC40: 8.75 µM

SMILES: Cc1cc(C(=O)Nc2cccc3c2O[C@@H](CN(C)Cc2ccc(C(F)(F)F)cc2)[C@H](C)CN([C@H](C)CO)C3=O)n(C)n1
- AC40: 3.62 µM

SMILES: Cc1ccc(C(=O)Nc2ccccc2C(=O)O)cc1S(=O)(=O)Nc1ccccc1
- AC40: 2.74 µM

SMILES: C[C@H](CO)N1C[C@H](C)[C@@H](CN(C)Cc2ccc3c(c2)OCO3)Oc2c(NC(=O)C3CCOCC3)cccc2C1=O
- AC40: 9.34 µM

SMILES: CC(C)(C)C(=O)Nc1cc(S(=O)(=O)Nc2ccc(Cl)cc2)ccc1O
- AC40: 13.8 µM

SMILES: Cc1ccc(S(=O)(=O)Nc2ccc(-n3cnnn3)cc2)c(C)c1
- AC40: 0.759 µM

SMILES: COc1cc(S(=O)(=O)N(CCc2ccccc2)Cc2cccs2)ccc1-n1cnnn1
- AC40: 1.33 µM

SMILES: C[C@H](CO)N1C[C@H](C)[C@@H](CN(C)Cc2ccc3c(c2)OCO3)Oc2c(NC(=O)c3ccncc3)cccc2C1=O
- AC40: 13.1 µM

SMILES: Cc1cc(S(=O)(=O)Nc2ccc3cn[nH]c3c2)c(C)cc1Cl
- AC40: 2.11 µM

SMILES: COc1cc(C)c(Cl)cc1S(=O)(=O)NCc1ccco1
- AC40: 1.18 µM

SMILES: CCc1ccc(-c2cc(C)no2)cc1S(=O)(=O)NCc1ccccc1OC
- AC40: 3.11 µM

SMILES: COc1ccc(S(=O)(=O)Nc2cccc3c2O[C@H](CN(C)Cc2ccc(Cl)c(Cl)c2)[C@@H](C)CN([C@H](C)CO)C3=O)cc1
- AC40: 4.25 µM

SMILES: Cc1noc(C)c1NC(=O)Nc1cccc2c1O[C@H](CN(C)Cc1ccccc1)[C@@H](C)CN([C@H](C)CO)C2=O
- AC40: 7.74 µM

SMILES: Cc1ccc(-c2ccc3c(c2)O[C@H](CN(C)Cc2ccc(F)cc2)[C@@H](C)CN([C@H](C)CO)S3(=O)=O)cc1
- AC40: 5.46 µM

SMILES: COc1ccc(NS(=O)(=O)c2ccc(N3CCOCC3)c(NC(=O)c3cccc(F)c3)c2)cc1
- AC40: 8.96 µM

SMILES: Nc1c(S(=O)(=O)c2cccs2)c2nc3ccccc3nc2n1Cc1ccccc1
- AC40: 1.86 µM

SMILES: COc1ccc(OC)c(C2C3=C(COC3=O)Nc3cc4c(cc32)OCO4)c1 (stereo unspecified)
- AC40: 17.7 µM

SMILES: S=C(NCC1CCCCC1)Nc1ccc(Oc2ccccc2)cc1
- AC40: 14.6 µM

SMILES: CCOc1cc(C)c(Cl)cc1S(=O)(=O)NC1CC(C)(C)NC(C)(C)C1
- AC40: 6.39 µM

SMILES: Cc1ccc(S(=O)(=O)NC2CCCCCC2)cc1
- AC40: 2.92 µM

SMILES: CCOc1ccc(Br)cc1S(=O)(=O)Nc1ccc(Cl)c(S(=O)(=O)N(CC)c2ccccc2)c1
- AC40: 4.18 µM

SMILES: Cc1noc(C)c1S(=O)(=O)N(C)C[C@@H]1Oc2c(NC(=O)C3CCOCC3)cccc2C(=O)N([C@@H](C)CO)C[C@@H]1C
- AC40: 4.51 µM

SMILES: COc1ccc(NS(=O)(=O)c2cc(NC(=O)c3ccc(=O)[nH]c3)ccc2C)cc1
- AC40: 2.64 µM

SMILES: COCCNC(=O)c1ccc(C)c(S(=O)(=O)Nc2ccc(C)cc2)c1
- AC40: 6.38 µM

SMILES: C[C@H](CO)N1C[C@H](C)[C@@H](CN(C)Cc2ccc3c(c2)OCO3)Oc2c(NC(=O)C3CC3)cccc2C1=O
- AC40: 11.7 µM and 3.61 µM

SMILES: CCCn1c(NC(=O)c2cccc(C)c2C)nc2ccccc21
- AC40: 16.2 µM

SMILES: CC(NC(=O)COc1ccccc1)C(=O)OCC(=O)c1cc2ccccc2o1 (stereo unspecified)
- AC40: 33.5 µM

SMILES: O=S(=O)(NCC1CCCO1)c1cccc(C(F)(F)F)c1 (stereo unspecified)
- AC40: 22.2 µM

SMILES: CCN(CC)C(=O)CC(c1ccc(N(C)C)cc1)c1c(OC)cc(OC)c2c(-c3ccccc3)cc(=O)oc12 (stereo unspecified)
- AC40: 3 µM

SMILES: Cc1ccc(C)c(S(=O)(=O)Nc2ccc3sc(C)nc3c2)c1
- AC40: 1.5 µM

SMILES: C[C@@H]1CN([C@H](C)CO)C(=O)c2cccc(NC(=O)Nc3ccccc3)c2O[C@H]1CN(C)Cc1ccc(C(F)(F)F)cc1
- AC40: 3.22 µM

SMILES: COc1ccccc1C(=O)Nc1ccc2c(c1)C(=O)N(C)[C@H]1CC[C@H](CC(=O)NCc3ccc(Cl)c(Cl)c3)O[C@H]1CO2
- AC40: 0.333 µM

SMILES: O=C(c1ccc(NS(=O)(=O)c2ccc3c(c2)OCCO3)cc1)N1CCCCC1
- AC40: 14.8 µM

SMILES: COc1ccccc1NC(=S)NCC1CCCCC1
- AC40: 8.17 µM

SMILES: O=C1c2ccccc2C2=Nc3ccccc3SC(c3cccc(F)c3)C12 (stereo unspecified)
- AC40: 7.63 µM

SMILES: Cc1cc(C)cc(Cn2c3ccc(NC(=S)NCc4ccccc4F)cc3c(=O)n2C)c1
- AC40: 4.19 µM

SMILES: CC1CC(C)CN(S(=O)(=O)c2ccc(NC(=O)c3ccc(=O)[nH]c3)cc2)C1 (stereo unspecified)
- AC40: 12 µM

SMILES: Cc1cccc(C(=O)Nc2cccc(S(=O)(=O)NCc3ccco3)c2)c1
- AC40: 3.29 µM

SMILES: C[C@H](CO)N1C[C@H](C)[C@@H](CN(C)CC2CCCCC2)Oc2c(NC(=O)c3ccncc3)cccc2C1=O
- AC40: 1.97 µM

SMILES: Cc1ccc(S(=O)(=O)Nc2ccc3ncccc3c2)cc1
- AC40: 11.6 µM

SMILES: C[C@H](CO)N1C[C@H](C)[C@@H](CN(C)Cc2ccc(C(=O)Nc3ccccc3N)cc2)Oc2c(NS(=O)(=O)c3ccccc3)cccc2C1=O
- AC40: 20.2 µM

SMILES: Cc1ccc(S(=O)(=O)NCC[C@@H]2CC[C@@H](NC(=O)c3cnccn3)[C@H](CO)O2)cc1
- AC40: 10.2 µM

SMILES: COc1ccccc1CNC(=O)C[C@H]1CC[C@H]2[C@H](COc3ccc(NS(=O)(=O)c4ccc(C)cc4)cc3C(=O)N2C)O1
- AC40: 22.4 µM

SMILES: CCC(C)(C)NC(=O)C(c1cccn1C)N(C(=O)Cn1nnc2ccccc21)c1ccc(OC)cc1OC (stereo unspecified)
- AC40: 21 µM

SMILES: COc1ccc(NS(=O)(=O)c2cc(NC(=O)c3ccc(F)cc3)ccc2OC)cc1
- AC40: 3.14 µM

SMILES: Cc1ccc(C)c(S(=O)(=O)NCC(c2ccc3c(c2)OCO3)N2CCOCC2)c1 (stereo unspecified)
- AC40: 1.81 µM

SMILES: Cc1cccc(NS(=O)(=O)c2csc(C(N)=O)c2)c1
- AC40: 3.34 µM

SMILES: COc1ccc(S(=O)(=O)NCc2ccco2)c2ccccc12
- AC40: 2.62 µM

SMILES: COc1ccc(N(C(=O)c2ccco2)S(=O)(=O)c2cc(Cl)c(Cl)cc2Cl)cc1
- AC40: 12.4 µM

SMILES: CCOc1cc(C)c(S(=O)(=O)NCCCn2ccnc2)cc1C
- AC40: 5.88 µM

SMILES: CC(C)(C)NS(=O)(=O)c1ccc(OCC(=O)Nc2ccc3c(c2)OCCO3)cc1
- AC40: 14.7 µM

SMILES: COc1ccc(NC(=O)c2cccc(S(=O)(=O)Nc3ccc(Br)cc3)c2)cn1
- AC40: 2.11 µM

SMILES: Cc1cc(C)cc(NS(=O)(=O)c2ccc(F)cc2)c1
- AC40: 10.9 µM

SMILES: Cc1ccc(N(CC(=O)NCc2cccs2)S(=O)(=O)c2cccs2)cc1
- AC40: 29 µM

SMILES: CN1c2ccc(-c3ccc(F)cc3)cc2[C@H]2[C@H](CCN2S(=O)(=O)c2cccc(F)c2)[C@H]1CO
- AC40: 8.83 µM

SMILES: O=C(N/N=C/c1ccc(Cl)s1)C(O)c1ccccc1 (stereo unspecified)
- AC40: 1.17 µM

SMILES: Cc1ccc(S(=O)(=O)N/N=C/c2ccc(OCC(=O)Nc3ccccc3Cl)cc2)cc1
- AC40: 5.89 µM

SMILES: Cc1c(C(=O)OC2CCCC2)[nH]c2c1C(=O)CC(c1ccco1)C2 (stereo unspecified)
- AC40: 5.77 µM

SMILES: CCc1cccc(NS(=O)(=O)c2ccc3c(c2)NC(=O)CO3)c1
- AC40: 7 µM

SMILES: Cc1cccc(C(O)c2ncc(-c3ccccc3F)[nH]2)c1C (stereo unspecified)
- AC40: 5.74 µM

SMILES: C[C@H](CO)N1C[C@H](C)[C@@H](CN(C)Cc2ccc3c(c2)OCO3)Oc2c(NC(=O)Nc3ccccc3)cccc2C1=O
- AC40: 8.95 µM

SMILES: CC12CCC3C(CCC4(O)CC(O)CCC34C=O)C1(O)CCC2C1=CC(=O)OC1 (stereo unspecified)
- AC40: 2.4 µM

SMILES: CCCn1c(N)c(C(=O)CSc2nnc(Cc3cccs3)n2C2CC2)c(=O)n(C)c1=O
- AC40: 7.17 µM

SMILES: CCOc1cc(C)c(C(C)C)cc1S(=O)(=O)NCc1ccccn1
- AC40: 0.392 µM

SMILES: C[C@H](CO)N1C[C@H](C)[C@@H](CN(C)Cc2ccc(Oc3ccccc3)cc2)Oc2c(NC(=O)c3ccncc3)cccc2C1=O
- AC40: 2.42 µM

SMILES: C[C@H](CO)N1C[C@H](C)[C@@H](CN(C)Cc2ccc3c(c2)OCO3)Oc2c(NS(=O)(=O)c3ccc(Cl)cc3)cccc2C1=O
- AC40: 24.2 µM

SMILES: Cc1ccc(C)c(S(=O)(=O)Nc2cc3c4c(c2)CCC(=O)N4CCC3)c1
- AC40: 0.678 µM

SMILES: COc1ccc2nc(Nc3nc(CSc4nc5ccccc5[nH]4)cc(=O)[nH]3)nc(C)c2c1
- AC40: 9.96 µM

SMILES: COc1ccc(NS(=O)(=O)c2cc(NC(=O)c3cnccn3)ccc2N2CCCC2)cc1
- AC40: 3.27 µM

SMILES: Cc1ccc(NS(=O)(=O)c2cc(C(=O)NCCSC3CCCCC3)ccc2C)cc1
- AC40: 4.68 µM

SMILES: CCCCNS(=O)(=O)c1ccc2nc(SCC(=O)Nc3sccc3C#N)[nH]c2c1
- AC40: 0.553 µM

SMILES: O=C(Nc1ccccc1)c1ccc(NC2CCCCC2)c(S(=O)(=O)N2CCOCC2)c1
- AC40: 13.9 µM

SMILES: CC(C)CNS(=O)(=O)c1ccc(OCC(=O)Nc2ccc3c(c2)OCO3)c(Cl)c1
- AC40: 8.36 µM

SMILES: Cc1ccc(C(C)C)cc1S(=O)(=O)NCc1ccccn1
- AC40: 1.38 µM

SMILES: C[C@H]1CN([C@@H](C)CO)C(=O)c2cccc(NS(=O)(=O)c3ccccc3)c2O[C@@H]1CN(C)Cc1ccc(C(=O)Nc2ccccc2N)cc1
- AC40: 22 µM

SMILES: COc1ccccc1NS(=O)(=O)c1cc(NC(=O)CCC(=O)c2cccs2)ccc1Cl
- AC40: 21.7 µM

SMILES: C[C@H]1CN([C@@H](C)CO)C(=O)c2cc(N(C)C)ccc2O[C@H]1CN(C)Cc1ccc(C(=O)Nc2ccccc2N)cc1
- AC40: 5.42 µM

SMILES: CC(=O)Nc1ccc(NS(=O)(=O)c2ccc3ccccc3c2)cc1
- AC40: 14.3 µM
